# Data from patent US12540117B2, “Aniline compound used as RORγ regulator” (SHANGHAI LITEDD CO., LTD., priority 2020, dated 2026).
# What was measured:
# RORγt = biological target: T1, RORγt (Homo sapiens, UniProt P51449); experiment: In vitro luciferase reporter assay of RORγt inhibition (GAL4-RORγ-LBD in HEK293T); settings: for IC50: IC50, RORγt luciferase reporter gene, HEK293T; for Emax % / Emax: relative maximum inhibition rate relative to AZD-0284 at 10 μM; for Emax: HEK-293T
# T1 sequence (P51449 269-508 limits assumed): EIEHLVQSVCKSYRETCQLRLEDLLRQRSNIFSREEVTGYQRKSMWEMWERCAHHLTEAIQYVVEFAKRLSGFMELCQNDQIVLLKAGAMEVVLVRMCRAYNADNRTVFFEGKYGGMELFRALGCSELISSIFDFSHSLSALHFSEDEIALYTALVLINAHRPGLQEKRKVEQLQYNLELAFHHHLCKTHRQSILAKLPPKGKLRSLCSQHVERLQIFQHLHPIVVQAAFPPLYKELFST
# Excerpt: The RORγ-LBD coding sequence was inserted into pBIND plasmid (Promega, E1581). The expression vector and a reporter vector (pGL4.35 carrying a stably integrated luciferase reporter gene driven by GAL4 promoter) were co-expressed in HEK293T host cells. When the inhibitor binds to the corresponding chimeric receptor, the chimeric receptor binds to the GAL4 binding site on the reporter gene carrier and inhibits reporter gene expression. The inhibition activity of the compounds on RORγ was determined according to the intensity of the chemiluminescence signal.
# 2.2 Cell Transfection • a) Balancing the Trans-IT transfection reagent at room temperature; • b) Adding 20 μl of the transfection reagent and 600 μl of Opti-MEM™ medium without contacting the tube wall, mixing uniformly through blowing and pipetting by a pipette gun, and allowing to stand at room temperature for 5 minutes; • c) Adding 10 μg of the plasmid to the transfection reagent (see Step 2.2.b), and allowing to stand at room temperature for 20 minutes; • Plasmids: 5 μg of pBIND-RORγ and 5 μg of pGL4.35 plasmids were respectively added therein; • d) Adding the mixed DNA transfection reagent to a 100 mm cell culture dish (see Step 2.1); • e) Placing the dish in an incubator at 37° C. and 5% CO2 for 5 h. […] Calculation of % Inhibition
# [formula] • RLUcmpd: fluorescence value of test compounds • RLUpositive: average value of positive control • RLUvehicle: average value of negative control
# IC50s of the compounds were calculated by fitting the % Inhibition and the logarithm values of the compound concentration using Graphad 8.0.
# [1] = Pharmacokinetic (PK) assay in mice; format: in vivo, C57BL/6 mice; settings: for AUC(0-t) / Cmax / half-life / Vd / bioavailability: C57BL/6, mouse, plasma; for Vd: read-out: Vss; for bioavailability: Po 5 mg/kg vs IV 1 mg/kg
# Protocol: The PK of each compound was determined as follows: 6 C57BL/6 mice (obtained from Shanghai Lingchang Biotechnology Co., Ltd.) were divided into two groups with 3 in each group. One group was administered intravenously at a dose of 1 mg/kg in the vehicle of 5% DMSO/95% (20% Captisol); the other group was administered by oral gavage at a dose of 5 mg/kg in the vehicle of 0.5% CMC-Na/0.5% Tween 80. Blood samples were collected from saphenous vein of lower leg in each group at 0, 0.083, 0.25, 0.5, 1, 2, 4, 6, 8 and 24 h after administration. Approximately 40 μL of the blood samples were collected into anticoagulant tubes containing EDTA-K2 Immediately after collection, the tubes were inverted at least 5 times to ensure uniform mixing, and then placed on ice. The blood samples collected at each time point were centrifuged at 4° C., 8000 rpm for 5 minutes to obtain plasma. Another 1.5 mL centrifuge tube was marked with the compound name, animal number, and time point, and the plasma was transferred to this tube. The plasma was stored at −80° C. until analysis.
# Compound concentrations in the plasma were determined by UPLC-MS/MS method, and the pharmacokinetic parameters were calculated from the obtained data by Phoenix WinNolin 6.4 pharmacokinetic software.
# [2] = Metabolic stability in human liver microsomes; format: in vitro ADME
# Excerpt: (§1) According to standard methods for investigating in vitro metabolic stability in the art, e.g., the methods described in Kerns, Edward H. and Di Li (2008). Drug-like Properties: Concepts, Structure Design and Methods: from ADME to Toxicity Optimisation. San Diego: Academic Press; Di, Li et al., Optimisation of a Higher Throughput Microsomal Stability Screening Assay for Profiling Drug Discovery Candidates, J. Biomol. Screen. 2003, 8(4), 453, the liver microsomal metabolic stability test of the compounds of the present disclosure was carried out analogously as follows. The incubation system comprising 0.5 mg protein/mL microsomes, cofactors, and PBS, was pre-incubated at 37° C. for 3 min, and then added the substrate (i.e., the test compounds) to initiate the reaction. Samples were taken at 0, 1, 5, 10, 15, 20, 30 and 60 min from the start of the reaction, and an appropriate terminator was added to terminate the reaction. Sample treatment (n=3): appropriate samples were added respectively, vortexed and centrifuged at high speed. The supernatants were collected and detected for the substrate by HPLC-MS/MS. The peak area at the 0 mm was taken as 100%. The peak areas at other time points were converted to percentages of remaining. The natural logarithms of the percentages of remaining at each time point was plotted against the incubation time, and the slope (−k) was calculated by linear regression. Then, Clint (μL/min/mg) and half-life (T½, min.) of the compounds were calculated following the equation: Inherent clearance rate (Clint)=(k*Volume of incubation solution)/Mass of liver microsomes.
# [3] = Metabolic stability in mouse liver microsomes; format: in vitro ADME, CD-1 mice
# Excerpt: as §1
Structure (SMILES),IC50 (RORγt),Emax (RORγt),further results
"CCS(=O)(=O)c1ccc2c(c1)CCN(C(C)=O)C2C(=O)Nc1ccc(C(O)(C(F)(F)F)C(F)(F)F)cc1 (single isomer, unassigned) [Example 3, (S)-2-acetyl-6-(ethylsulfonyl)-N-(4-(1,1,1,3,3,3-hexafluoro-2-hydroxypropan-2-yl)phenyl)-1,2,3,4-tetrahydroisoquinoline-1-carboxamide or (R)-2-acetyl-6-(ethylsulfonyl)-N-(4-(1,1,1,3,3,3-hexafluoro-2-hydroxypropan-2-yl)phenyl)-1,2,3,4-tetrahydrosoquinoline-1-carboxamide]",681 nM,–,Emax % (RORγt): 111.3%
"CCS(=O)(=O)c1ccc2c(c1)CCN(C(C)=O)C2C(=O)Nc1ccc(C(F)(C(F)(F)F)C(F)(F)F)cc1 (single isomer, unassigned) [Example 8, (R)-2-acetyl-6-(ethylsulfonyl)-N-(4-(perfluoropropan-2-yl)phenyl)-1,2,3,4-tetrahydroisoquinoline-1-carboxamide or (S)-2-acetyl-6-(ethylsulfonyl)-N-(4-(perfluoropropan-2-yl)phenyl)-1,2,3,4-tetrahydroisoquinoline-1-carboxamide]",3.78 nM,99.2%,–
"CCS(=O)(=O)c1ccc2c(c1)CCN(C(C)=O)C2C(=O)Nc1ccc(C(F)(C(F)(F)F)C(F)(F)F)cc1 (single isomer, unassigned) [Example 9, (S)-2-acetyl-6-(ethylsulfonyl)-N-(4-(perfluoropropan-2-yl)phenyl)-1,2,3,4-tetrahydroisoquinoline-1-carboxamide or (R)-2-acetyl-6-(ethylsulfonyl)-N-(4-(perfluoropropan-2-yl)phenyl)-1,2,3,4-tetrahydroisoquinoline-1-carboxamide]",616 nM,–,Emax % (RORγt): 107.1%
"CC(=O)N1Cc2cc(S(C)(=O)=O)ccc2[C@@H]1C(=O)Nc1ccc(C(O)(C(F)(F)F)C(F)(F)F)cc1 [AZD-0284, reference compound]",–,–,"AUC(0-t) ([1]; IV, 1 mg/kg): 1180 ng·h/mL; Cmax ([1]; IV, 1 mg/kg): 2480 ng/mL; half-life ([1]; IV, 1 mg/kg): 7.75 h; Vd ([1]; IV, 1 mg/kg): 6.29 L/kg; bioavailability [1]: 38%; AUC(0-t) ([1]; Po, 5 mg/kg): 2780 ng·h/mL; Cmax ([1]; Po, 5 mg/kg): 264 ng/mL; half-life ([1]; Po, 5 mg/kg): 3.35 h; CL_obs ([1]; IV, 1 mg/kg): 12.6 mL/min/kg"
"CCS(=O)(=O)c1ccc2c(c1)CCN(C(=O)CCC(=O)O)C2C(=O)Nc1ccc(C(O)(C(F)(F)F)C(F)(F)F)cc1 (stereo not shown) [Example 4, 4-(6-(Ethylsulfonyl)-1-((4-(1,1,1,3,3,3-hexafluoro-2-hydroxypropan-2-yl)phenyl)carbamoyl)-3,4-dihydroisoquinolin-2(1H)-yl)-4-oxobutanoic acid]",3050 nM,73.8%,–
"CC(=O)N1CCc2cc(S(C)(=O)=O)ccc2C1C(=O)Nc1ccc(C(O)(C(F)(F)F)C(F)(F)F)cc1 (stereo not shown) [Example 5, 2-Acetyl-N-(4-(1,1,1,3,3,3-hexafluoro-2-hydroxypropan-2-yl)phenyl)-6-(methylsulfonyl)-1,2,3,4-tetrahydroisoquinoline-1-carboxamide]",–,–,"half-life ([2]; 0.5 mg protein/mL): > 2.42 h; Remaining % (T = 60 min) ([2]; T = 60 min): 85.0%; microsomal CLint ([2]; read-out: CLint(mic)): < 9.6 µL/min/mg; AUC(0-t) ([1]; IV, 1 mg/kg): 1190 ng·h/mL; Cmax ([1]; IV, 1 mg/kg): 1890 ng/mL; half-life ([1]; IV, 1 mg/kg): 4.89 h; Vd ([1]; IV, 1 mg/kg): 3.34 L/kg; bioavailability [1]: 213%; AUC(0-t) ([1]; Po, 5 mg/kg): 12600 ng·h/mL; Cmax ([1]; Po, 5 mg/kg): 1370 ng/mL; half-life ([1]; Po, 5 mg/kg): 4.33 h; CL_obs ([1]; IV, 1 mg/kg): 13.8 mL/min/kg; half-life ([3]; CD-1, 0.5 mg protein/mL): > 2.42 h; microsomal CLint ([3]; CD-1, read-out: CLint(mic)): < 9.6 µL/min/mg; Remaining % (T = 60 min) ([3]; T = 60 min): 86.6%"
"CCS(=O)(=O)c1ccc2c(c1)CCN(C(C)=O)C2C(=O)Nc1ccc(C(O)(C(F)(F)F)C(F)(F)F)cc1F (stereo not shown) [Example 10, 2-Acetyl-6-(ethylsulfonyl)-N-(2-fluoro-4-(1,1,1,3,3,3-hexafluoro-2-hydroxypropan-2-yl)phenyl)-1,2,3,4-tetrahydroisoquinoline-1-carboxamide]",40.5 nM,102%,–
"CC(=O)N1CCc2cc(S(C)(=O)=O)ccc2C1C(=O)Nc1ccc(C(O)(C(F)(F)F)C(F)(F)F)cc1F (stereo not shown) [Example 11, 2-Acetyl-N-(2-fluoro-4-(1,1,1,3,3,3-hexafluoro-2-hydroxypropan-2-yl)phenyl)-6-(methylsulfonyl)-1,2,3,4-tetrahydroisoquinoline-1-carboxamide]",91.3 nM,104%,–

# The next lines start with results.
IC50 (RORγt),Emax (RORγt),Structure (SMILES),further results
290 nM,95.7%,"CCS(=O)(=O)c1ccc2c(c1)CCN(C(C)=O)C2C(=O)Nc1ccc(OC(F)(F)F)cc1 (stereo not shown) [Example 12, 2-Acetyl-6-(ethylsulfonyl)-N-(4-(trifluoromethoxy)phenyl)-1,2,3,4-tetrahydroisoquinoline-1-carboxamide]",–
154 nM,101%,"CCC(=O)N1CCc2cc(S(=O)(=O)CC)ccc2C1C(=O)Nc1ccc(C(O)(C(F)(F)F)C(F)(F)F)cc1 (stereo not shown) [Example 13, 6-(Ethylsulfonyl)-N-(4-(1,1,1,3,3,3-hexafluoro-2-hydroxypropan-2-yl)phenyl)-2-propionyl-1,2,3,4-tetrahydroisoquinoline-1-carboxamide]",–
83.4 nM,98.8%,"CCS(=O)(=O)c1ccc2c(c1)CCN(C(=O)C1CC1)C2C(=O)Nc1ccc(C(O)(C(F)(F)F)C(F)(F)F)cc1 (stereo not shown) [Example 14, 2-(Cyclopropanecarbonyl)-6-(ethylsulfonyl)-N-(4-(1,1,1,3,3,3-hexafluoro-2-hydroxypropan-2-yl)phenyl)-1,2,3,4-tetrahydroisoquinoline-1-carboxamide]",–
67.1 nM,95.9%,"CC(=O)N1CCc2cc(S(C)(=O)=O)ccc2C1C(=O)Nc1cc(Cl)c(C2=CCOCC2)c(Cl)c1 (stereo not shown) [Example 17, 2-Acetyl-N-(3,5-dichloro-4-(3,6-dihydro-2H-pyran-4-yl)phenyl)-6-(methylsulfonyl)-1,2,3,4-tetrahydroisoquinoline-1-carboxamide]",–
107 nM,95.8%,"CCS(=O)(=O)c1ccc2c(c1)CCN(C(C)=O)C2C(=O)Nc1cc(Cl)c(C2=CCOCC2)c(Cl)c1 (stereo not shown) [Example 18, 2-Acetyl-N-(3,5-dichloro-4-(3,6-dihydro-2H-pyran-4-yl)phenyl)-6-(ethylsulfonyl)-1,2,3,4-tetrahydroisoquinoline-1-carboxamide]",–
14.7 nM,101%,"CCS(=O)(=O)c1ccc2c(c1)CCN(C=O)C2C(=O)Nc1ccc(C(O)(C(F)(F)F)C(F)(F)F)cc1 (stereo not shown) [Example 19, 6-(Ethylsulfonyl)-2-formyl-N-(4-(1,1,1,3,3,3-hexafluoro-2-hydroxypropan-2-yl)phenyl)-1,2,3,4-tetrahydroisoquinoline-1-carboxamide]",–
12.5 nM,102%,"CC(=O)N1CCc2cc(S(=O)(=O)CC3CC3)ccc2C1C(=O)Nc1ccc(C(O)(C(F)(F)F)C(F)(F)F)cc1 (stereo not shown) [Example 21, 2-Acetyl-6-((cyclopropylmethyl)sulfonyl)-N-(4-(1,1,1,3,3,3-hexafluoro-2-hydroxypropan-2-yl)phenyl)-1,2,3,4-tetrahydroisoquinoline-1-carboxamide]",–
17.8 nM,102%,"CNS(=O)(=O)c1ccc2c(c1)CCN(C(C)=O)C2C(=O)Nc1ccc(C(O)(C(F)(F)F)C(F)(F)F)cc1 (stereo not shown) [Example 22, 2-Acetyl-N-(4-(1,1,1,3,3,3-hexafluoro-2-hydroxypropan-2-yl)phenyl)-6-(N-methylsulfamoyl)-1,2,3,4-tetrahydroisoquinoline-1-carboxamide]",–
